Measurements reported in patent US9463256B2, “Pretargeting kit, method and agents used therein” (KONINKLIJKE PHILIPS N.V., priority 2010, dated 2016).

Experiment: Trans-cyclooctene stability in vivo (blood samples reacted with excess ^111In-tetrazine 28)
Parameters: species or system mice
Conditions: TCO bound to CC49, tumor-free mice
Procedure: Tumor-free mice (n=3 per group) were injected intravenously with CC49-PEG10-TCO-O major (CC49-23a; 8.4 TCO per CC49; 300 μg/100 μL per mouse), CC49-PEG10-TCO-C minor (CC49-27b; 3.3 TCO per CC49, […]), and CC49-TCO-O major without spacer (CC49-20a; 8.0 TCO per CC49, 300 μg/100 μL per mouse). At selected time points (from 1 hour up to 4 days post injection) blood samples were withdrawn from the vena saphena and collected in vials containing heparin. The blood samples were weighed and an excess ^111In-tetrazine 28 was added. After 20 min incubation at 37° C., blood aliquots were 10-fold diluted with PBS and analyzed by SDS-PAGE. The cycloaddition yields were determined from the radioactivity in the bands corresponding to the mAb and the counts were quantified with AIDA Image Analyzer software. The amount of mAb present in blood at each time point (% ID/g blood) was evaluated in three separate groups of mice (n=3), which were injected with the corresponding ^125I—CC49-TCO (300 μg/100 μL per mouse, ca. 0.2 MBq). The data, corrected for mAb clearance, were normalized to 100% ID TCO at t=0.
This experiment was carried out to expand the series of in vivo TCO stability measurements described in Example 6. […] In the new experiment, following the same procedure, we tested the in vivo stability of a CC49-bound TCO minor without PEG spacer (20b, 6.9 equivalents bound).

SMILES: O=C(ON1C(=O)CCC1=O)c1ccc(COC2CC/C=C/CCC2)cc1 (stereo not shown) [20a, (E-major)-2,5-Dioxopyrrolidin-1-yl 4-((cyclooct-4-enyloxy)methyl)benzoate]
- time stable in vivo: at least 4 days
